Key:
[1] = system: SMARCA2/SMARCA4 dual loss NSCLC cell line xenografts; test: NSCLC xenograft model in vivo; conditions: ~250 mg/kg body weight
Oral bioavailability = conditions: in vivo

- oral bioavailability (Oral bioavailability): orally bioavailable
Structure (SMILES): CCN(c1cc(-c2ccc(CN3CCOCC3)cc2)cc(C(=O)NCc2c(C)cc(C)[nH]c2=O)c1C)C1CCOCC1 [Compound 44, tazemetostat]
- tumor growth inhibition ([1]; dual loss xenografts compared with SMARCA4 single loss xenografts): more prominent
- tumor regression ([1]; in two of the four SMARCA2/SMARCA4 dual loss cell lines): tumor regression was observed

Source: US20220175771A1, “CANCER TREATMENT MODALITIES” (priority 2017, published 2022)
